Assay [1] has as its system acetylcholine receptor (AChR). It is filed as binding, Electrophorus electricus.
The test system of another assay is opiate receptor (OpR). It is filed as binding, rat.
In assay [2] the test system is acetylcholine receptor (AChR). In kind it is binding, Electrophorus electricus. The source holds these as a separate data set.

Several values for one entry are separate records, joined by “and”; a condition that tells them apart may be missing. Equal entries are not always repeated.

Consider `CCCCCCCCCC[N+](C)(C)CCCS(=O)(=O)[O-]` [Zwittergent ™ 3-10], for which, in assay [1], the “% Activity Increase (AChR membrane activity)” value was 13%.
Take `CCCCCCCC[N+](C)(C)CCCS(=O)(=O)[O-]` [Zwittergent ™ 3-08]: the “% Activity Increase (AChR membrane activity)” value in assay [1] stood at 55%.
Triton ™ X-100: the “increase in retention of binding activity of AChR” value in assay [1] was “more than 90%”.
Consider `CN1CC[C@]23CCCC[C@H]2[C@H]1Cc1ccc(O)cc13` [Levorphanol], for which, in the assay with opiate receptor (OpR), the “Δ% (difference between resistance changes of test and control chips)” value is on record as 10%; the “ΔK.OMEGA. (change in resistance across the biosensor circuit)” value is given as -160.
On to `OC[C@H]1OC(O)[C@H](O)[C@@H](O)[C@@H]1O` (stereo partly shown) [Glucose], for which, in assay [2], the “% Change with respect to control sensor” value is 3% and 0% and 6% and 5%; the “change in resistance between control and AChR sensors (in words)” value is “no change”.

The record behind these values is patent US5192507A (priority 1991, dated 1993).
